From US20110092521A1, “Methods of Treating Diseases Using Inhibitors of Nucleoside Phosphorylases and Nucleosidases” (priority 2006, published 2011)
Entries after “also recorded” stand apart in the source; their conditions may differ.

Columns and labels:
[1] = system: FaDu xenografts; test: FaDu xenograft studies in NOD-SCID mice; type: in vivo, mouse
Method: NOD-SCID mice (6-8 weeks old) were obtained from Jackson Laboratory (Bar Harbor, Me.). FaDu cells (10^6) were inoculated into the dorsum of the hind foot. After 5 days, mice were treated with 9 mg/kg or 21 mg/kg body weight of compound (2) in drinking water or by daily i.p. injections of 5 mg/kg body weight of compound (2). After inoculation mice were assigned to treatment or control groups (n=5). Tumor volume (V) was determined from: V=(4/3)*(22/7)*1/8*(length*width*height). Differences between treatment cohorts were determined using the Student's t test Mice were weighed every 4-5 days, monitored for hair loss, loss of appetite, vomiting and diarrhoea. Total and differential blood and bone marrow analyses were performed after treatment with compound (2).

[2] = system: TRAMP (transgenic adenocarcinoma of mouse prostate) mice; test: Treatment of TRAMP mice (tumour mass, histology, MRI); type: in vivo; details: for prostate cancer progression in the TRAMP mouse model: administered either alone or in combination with MTA
Method: MRI experiments were performed using a 9.4 T 21 cm bore horizontal bore magnet (Magnex Scientific) Varian INOVA MRI system (Fremont, Calif.) equipped with a 28 mm inner diameter quadrature birdcage coil. Mice were anesthetized with isoflurane inhalation anesthesia (1-1.5% in 100% O2 administered via a nose cone) and positioned in the MRI coil. Body temperature was maintained (37-38° C.) using a homeothermic warming system. After acquiring scout images, multi-slice spin-echo imaging with an echo time of 18 ms and a repetition time of 400 ms ms was performed. A 40 mm field of view with a 256×256 matrix size was used. Nine to 15 slices along the transverse, sagittal, and coronal planes were acquired in each multi-slice experiment with a slice thickness of 1 mm and the gap between slices of 0.5 mm. MRI data were processed off-line with MATLAB-based MRI analysis software.
Long-Term: Sterile solutions of 100 μM compound (2) (pH ˜6.4). Water bottles were autoclaved prior to filling with sterile inhibitor solutions. Water consumption was monitored every other day, with fresh inhibitor solution being administered to prevent bacterial growth. Mice were control-sacrificed and tissues (genitourinary system, liver, lungs) were collected for histology and polyamine analysis. Mass and dimensions of excised genitourinary system tumours were recorded. Sections of small intestine were also removed for toxicity analysis via H&E staining.

Compound: CSC[C@H]1CN(Cc2c[nH]c3c(N)ncnc23)C[C@@H]1O [compound (2), (3R,4S)-1-[(9-deazaadenin-9-yl)methyl]-3-hydroxy-4-(methylthiomethyl)pyrrolidine]
- regrowth of tumor after removal of treatment ([1]; 28 days without treatment after 28 day therapy, mice receiving the two highest doses): no regrowth of tumor
- differences in animal weight or in total and differential blood counts between treatment and control groups ([1]; NOD-SCID mice with FaDu tumors, after 28 days of therapy): No significant differences
- growth of established FaDu xenografts (tumor growth) ([1]; NOD-SCID mice, 9 or 21 mg/kg in drinking water or 5 mg/kg daily i.p., from day 5, versus controls): significantly slower than in controls; also recorded: significantly delays the growth
- tumour growth and metastasis in TRAMP mice ([2]; 100 μM via drinking water, approximately 6-8 months): reduces tumour growth and metastasis
- prostate cancer progression in the TRAMP mouse model [2]: inhibited

Compound: CSC[C@H]1N[C@@H](c2c[nH]c3c(N)ncnc23)C(O)C1O (stereo partly drawn) [compound (3)]
- prostate cancer progression in the TRAMP mouse model [2]: inhibits prostate cancer progression
